These results are taken from US8741641B2, “Methods for evaluating the stage of ovarian cancer or the survival rate of an ovarian cancer patient” (Fujifilm Corporation, priority 2007, dated 2014).

Each structure is given as a SMILES string.

The test system of assay [1] is CpG islands of the CTGF gene. Nature of the assay: Demethylation of CpG islands of the CTGF gene in ovarian cancer cells cultured with demethylating reagent. The format is cell-based. To be noted: ovarian cancer cells cultured in the presence of the reagent.
The next assay relates to CTGF gene. Nature of the assay: RT-PCR analysis of CTGF gene expression in ovarian cancer cell lines after treatment with demethylating reagent or deacetylation inhibitory agent. Format: cell-based. To be noted: ovarian cancer cell lines HNOA and RMG-II not expressing the CTGF gene. How it is done: D: Ovarian cancer cell lines (HNOA and […]) were treated (+) or not treated (−) with 5-aza-dCyd (5 μM) for 5 days or TSA (100 ng/ml) for 12 hours. The results of RT-PCR analysis on the CTGF gene in the ovarian cancer cell lines.
To examine the expression levels of the 7 above genes (the CTGF gene, the ENPP1 gene, the ENPP3 gene, the CRSP3 gene, the AKAP7 gene, the EPB41L2 gene, and the KIAA1913 gene), 24 types of ovarian cancer cell line, normal ovary, and a normal ovarian epithelial cell-derived immortalized cell line (OSE-2a) were subjected to reverse transcriptase (RT)-PCR. Specifically, a single-chain cDNA was synthesized from the RNA extracted from each cultured cell line using the SuperScript First-Strand Synthesis System (Invitrogen). Moreover, a glyceraldehyde-3-phosphate dehydrogenase (GAPDH) gene was used as a control. As a result, decreased expression levels of the CTGF gene, the ENPP1 gene, and the KIAA1913 gene were shown, compared with the case of normal ovary or OSE-2a cells (FIG. 1D), although chromosomal region 6q23.1-23.2 had not undergone homozygous deletion. This may be due to a mechanism other than genomic deletion, such as an epigenetic phenomenon in ovarian cancer cell lines. Moreover, in the above experiment, the ARG1 gene was not subjected to examination, since the gene is not expressed in the ovary according to the results of analyzing the gene expression database (ncbi.Nlm.nih.gov and http://www.lsbm.org/database/index.html).
To examine if suppressed CTGF gene expression is due to DNA methylation, ovarian cancer cell lines (HNOA and RMG-II) not expressing the CTGF gene were treated using 5 μM demethylating reagent 5-aza-dCyd for 5 days or using deacetylation inhibitory agent TSA (100 ng/ml) for 12 hours. RNAs were extracted from these cells and then CTGF gene expression was examined by RT-PCR (FIG. 1D).

On to `Nc1ncn([C@H]2C[C@H](O)[C@@H](CO)O2)c(=O)n1` [5-aza-dCyd, 5-azadeoxycytidine], for which the “demethylation of CpG islands” value in assay [1] was “possible to demethylate such CpG islands”. Further, the “CTGF gene expression (RT-PCR)” value with CTGF gene (5 μM for 5 days) is given as “recovers its gene expression”; in the assay on CTGF gene (5 μM for 5 days, listed as 5-azadeoxycytidine), “recover the expression level of the CTGF gene”.

For `CC(/C=C/C(=O)NO)=C\[C@@H](C)C(=O)c1ccc(N(C)C)cc1` [TSA], the “CTGF gene expression (RT-PCR)” value in the assay with CTGF gene (100 ng/ml for 12 hours) is listed as “no differences”.
